In EPA's ToxValDB 9.5:

Test system: Rattus norvegicus
Settings: oral
[1] = short-term, duration: 28 days, gavage, M/F, CD(SD)ICS BR, Clinical Observation: Fur-staining Hypoactivity(one animal)Hunched posture(one animal)Weight loss(one animal)Pallor(one animal) + Urinalysis…
[2] = short-term, duration: 28 days, gavage, M, Sprague-Dawley, Clinical Observation: Locomotor activity decrease, SalivationRespiratory rate decrease, Incomplete eyelid opening + Body Weight Changes: …
[3] = subchronic, gavage, M, Sprague-Dawley, Clinical Observation: Soft stool + Urinalysis: pH decrease(trend)Phosphate crystal (grade, frequency) decrease + Histopathology: Stomach-…

CC(=O)O.O=C(NCC1CCCCN1)c1cc(OCC(F)(F)F)ccc1OCC(F)(F)F (stereo unspecified) [Flecainide acetate]
NOAEL (chronic, duration: 91 days, gavage, F, Sprague-Dawley, Deaths + Clinical Observation: Patchy hair loss Salivation + Water Consumption: increase + Urinalysis: Volume increase, Protein decrease + …): 20 mg/kg-day
NOAEL (chronic, duration: 91 days, gavage, M, Sprague-Dawley, Deaths + Clinical Observation: Patchy hair loss Salivation + Water Consumption: increase + Urinalysis: Volume increase, Protein decrease + …): 10 mg/kg-day

O=C1c2ccccc2C(=O)N1SC(F)(Cl)Cl [Fluorofolpet]
NOEL (short-term, duration: 28 days, gavage, M/F, Wistar, Deaths + Clinical Observation: Nasal noise Diarrhea + Body Weight Changes: Weight gain decrease + Food Consumption: decrease + Water …): < 20 mg/kg-day

NS(=O)(=O)c1cc(C(=O)O)c(NCc2ccco2)cc1Cl [Furosemide]
NOEL (subchronic, duration: 13 weeks, diet, M/F, Fischer 344, Deaths + Clinical Observation: Diuresis Rough fur + Body Weight Changes: decrease + Food Consumption: decrease + Relative Organ Weight: …): < 60 mg/kg-day

OCC1CO1 (stereo unspecified) [Glycidol]
NOEL (subchronic, duration: 13 weeks, gavage, M/F, Fischer 344, Deaths + Body Weight Changes: decrease + Absolute Organ Weight: -- + Histopathology: Brain /cerebellum-Necrosis Brain-Demyelination Kidney-…): < 25 mg/kg-day

NNC(=O)CCCCC(=O)NN [Hexanedihydrazide]
NOEL (subchronic, gavage, M, Sprague-Dawley, Clinical Observation: Emaciation R Incontinence of urine R Diarrhea R Loose stool R + Relative Organ Weight: Thymus increase, Kidney …): 85 mg/kg-day

O=[N+]([O-])/N=C1\NCCN1Cc1ccc(Cl)nc1 [Imidacloprid]
NOEL (chronic, duration: 96 days, gavage, M/F, Body Weight Changes: Weight gain decrease + Hematology: WBC decrease, QT increase + Blood Chemistry: BUN increase, CL increase, IP decrease…): < 150 ppm

CC(I)C1OCC(CO)O1 (stereo unspecified) [Iodinated glycerol]
NOEL (subchronic, duration: 13 weeks, gavage, M/F, Fischer 344, Deaths + Body Weight Changes: decrease + Histopathology: Kidney-Tubular cell regeneration Kidney-Calcification): 250 mg/kg-day

C=CC(C)(O)CCCC(C)CCCC(C)CCCC(C)C (stereo unspecified) [Isophytol]
NOAEL [1]: 500 mg/kg-day
NOEL [1]: 250 mg/kg-day

CN(C)c1ccc(C(c2ccccc2)c2ccc(N(C)C)cc2)cc1 [Leucomalachite green]
NOEL (subchronic, diet, M, Fischer 344, Body Weight Changes: decrease + Hematology: Hct decrease, Hgb decrease, RBC decrease, Ret increase + Blood Chemistry: Alb decrease, Cho …): < 27.8 mg/kg-day

CN1C(=O)C(O)N=C(c2ccccc2Cl)c2cc(Cl)ccc21 (stereo unspecified) [Lormetazepam]
NOEL (subchronic, duration: 35 days, gavage, F, Sprague-Dawley, Clinical Observation: Locomotor activity decrease, Drowsiness Aggression + Body Weight Changes: Body weight gain increase + Food Consumption…): 4 mg/kg-day
NOEL (subchronic, duration: 35 days, gavage, M, Sprague-Dawley, Clinical Observation: Locomotor activity decrease, Drowsiness Aggression + Body Weight Changes: Body weight gain increase + Food Consumption…): 20 mg/kg-day

CN(C)c1ccc(C(=C2C=CC(=[N+](C)C)C=C2)c2ccccc2)cc1.[Cl-] [Malachite green]
NOEL (subchronic, diet, M/F, Fischer 344, Body Weight Changes: decrease + Hematology: Hct decrease, RBC decrease, Hgb decrease + Blood Chemistry: Cho increase, gamma-GTP increase + …): 12 mg/kg-day

COCCC(=O)OC [Methyl 3-methoxypropionate]
NOEL (subchronic, duration: 42 days, gavage, M, Sprague-Dawley, Clinical Observation: Salivation + Food Consumption: decrease + Urinalysis: Volume increasep H decrease + Hematology: Mono increase + Blood …): 62.5 mg/kg-day

CC(=O)C=Cc1ccccc1 [Methyl styryl ketone]
NOEL (short-term, duration: 28 days, gavage, M/F, Sprague-Dawley, Functional Observational Battery: Salivation Rearing decrease + Urinalysis: KET increase + Blood Chemistry: T-Cho increase + Absolute Organ …): 60 mg/kg-day

CN(c1nccc(=O)[nH]1)C1CCN(c2nc3ccccc3n2Cc2ccc(F)cc2)CC1 [Mizolastine]
NOAEL (chronic, duration: 182 days, gavage, M/F, Sprague-Dawley, Clinical Observation: Salivation + Urinalysis: Volume increase + Blood Chemistry: IP increase + Absolute Organ Weight: Liver increase, …): 5 mg/kg-day

CN(C)C(=O)Nc1ccc(Cl)cc1 [Monuron]
NOAEL [2]: < 40 mg/kg-day
NOEL [2]: < 40 mg/kg-day

Nc1ccc(Nc2ccccc2)cc1 [N-Phenyl-1,4-benzenediamine]
NOAEL (subchronic, duration: 90 days, diet, M, Wistar, Body Weight Changes: Body weight gain decrease + Food Consumption: decrease + Hematology: RBC decrease, HGB decrease, HCT decrease, MCV …): 96 mg/kg-day

c1ccc(Nc2ccc3ccccc3c2)cc1 [N-Phenyl-2-naphthylamine]
NOEL (subchronic, duration: 13 weeks, diet, M/F, Fischer 344, Deaths + Clinical Observation: Rough coats + Body Weight Changes: decrease + Absolute Organ Weight: Liver increase + Relative Organ Weight…): 240 mg/kg-day

NC(=O)c1cccnc1 [Niacinamide]
NOAEL (short-term, duration: 28 days, gavage, M/F, Wistar, Body Weight Changes: decrease + Food Consumption: decrease + Blood Chemistry: AST increase, ALT increase, T-Cho increase, ALP increase, BUN …): 215 mg/kg-day

COC(=O)C1=C(C)NC(C)=C(C(=O)OCCN(C)Cc2ccccc2)C1c1cccc([N+](=O)[O-])c1.Cl (stereo unspecified) [Nicardipine hydrochloride]
NOEL (subchronic, duration: 35 days, gavage, M/F, Sprague-Dawley, Deaths + Clinical Observation: Locomotor activity decrease, Prone position Dyspnea Ataxic gait Ptosis Piloerection Respiratory rate increase…): 10 mg/kg-day

COC(=O)C1=C(C#N)NC(C)=C(C(=O)OC(C)C)C1c1cccc([N+](=O)[O-])c1 (stereo unspecified) [Nilvadipine]
NOEL (subchronic, gavage, M/F, Sprague-Dawley, Relative Organ Weight: Heart increase Liver increase Ovary increase + Histopathology: Adrenal-Lipoid increase, of zona glomerulosa): < 9.6 mg/kg-day

COc1c(Cl)c(Cl)c(Cl)c(Cl)c1Cl [Pentachloroanisole]
NOEL (subchronic, duration: 13 weeks, gavage, M/F, Fischer 344, Deaths + Clinical Observation: Labored respiration + Body Weight Changes: decrease + Blood Chemistry: Ch E decrease + Absolute Organ Weight…): < 40 mg/kg-day

CCCCC(CC)COP(=O)(O)CC(CC)CCCC (stereo unspecified) [Phosphonic acid, P-(2-ethylhexyl)-, mono(2-ethylhexyl) ester]
NOEL (subchronic, gavage, M, Sprague-Dawley, Hematology: Hgb decrease, Hct decrease + Blood Chemistry: Alb increase, A/G increase + Absolute Organ Weight: Liver increase + Relative …): 30 mg/kg-day

CCCN(CCC)S(=O)(=O)c1ccc(C(=O)O)cc1 [Probenecid]
NOEL (subchronic, duration: 13 weeks, gavage, M/F, Fischer 344, Clinical Observation: Yellow-brown staining of the perineum + Body Weight Changes: decrease + Absolute Organ Weight: Liver increase, Right …): < 50 mg/kg-day

Clc1ccc(Cl)nn1 [Pyridazine, 3,6-dichloro-]
NOEL (short-term, duration: 28 days, gavage, F, Sprague-Dawley, Body Weight Changes: decrease, Weight gain decrease + Food Consumption: decrease + Urinalysis: BIL increase + Blood Chemistry: TP increase, …): 10 mg/kg-day

O=C(O)c1cc(C(=O)O)c(C(=O)O)cc1C(=O)O [Pyromellitic acid]
LOEL [3]: 100 mg/kg-day
NOEL [3]: < 100 mg/kg-day

CCCCCCCCCCCCC(C(=O)OC)S(=O)(=O)[O-].[Na+] (stereo unspecified) [Sodium 1-methoxy-1-oxotetradecane-2-sulfonate]
NOEL (subchronic, diet, F, Crj: CD (SD), Blood Chemistry: TG decrease + Absolute Organ Weight: Testis increase + Relative Organ Weight: Testis increase): 249 mg/kg-day
NOEL (subchronic, diet, M/F, Crj: CD (SD), Blood Chemistry: TG decrease + Absolute Organ Weight: Testis increase + Relative Organ Weight: Testis increase): 0.3%
NOEL (subchronic, diet, M, Crj: CD (SD), Blood Chemistry: TG decrease + Absolute Organ Weight: Testis increase + Relative Organ Weight: Testis increase): 175 mg/kg-day

O=N[O-].[Na+] [Sodium nitrite]
NOEL (chronic, duration: 14 weeks, water, F, Fischer 344, Deaths + Clinical Observation: Brown discoloration in eyes Cyanosis Hypoactive Alopecia + Body Weight Changes: decrease + Water Consumption…): < 40 mg/kg-day
NOEL (chronic, duration: 14 weeks, water, M/F, Fischer 344, Deaths + Clinical Observation: Brown discoloration in eyes Cyanosis Hypoactive Alopecia + Body Weight Changes: decrease + Water Consumption…): < 83.6 mg/kg-day

[Cl][Sn][Cl] [Stannous chloride]
NOEL (subchronic, duration: 13 weeks, diet, M/F, Fischer 344, Body Weight Changes: decrease): 365 mg/kg-day

CCCC[B-](c1ccccc1)(c1ccccc1)c1ccccc1.CCCC[N+](CCCC)(CCCC)CCCC [Tetrabutylammonium butyltriphenylborate]
NOEL (short-term, duration: 28 days, gavage, M/F, Blood Chemistry: GPT increase, CHE decrease + Histopathology: Thymus-Proliferation, histiocyte Thymus-Atrophy Adrenal-Decreased lipoid): < 3 mg/kg-day

CCC[CH2][Sn]([CH2]CCC)([CH2]CCC)[CH2]CCC [Tetrabutyltin]
NOAEL (subchronic, duration: 33 days, diet, M, Wistar, Body Weight Changes: Weight gain decrease + Absolute Organ Weight: Thymus decrease + Relative Organ Weight: Thymus decrease, Spleen decrease…): 9.6 mg/kg-day

O=C(O)C(Cl)(Cl)Cl [Trichloroacetic acid]
NOEL (short-term, duration: 28 days, gavage, M/F, Clinical Observation: Salivation Soft feces Locomotor activity decrease + Urinalysis: Ketone body increase + Hematology: WBC increase, Trend…): 40 mg/kg-day

N#CC(Cl)(Cl)Cl [Trichloroacetonitrile]
NOEL (short-term, duration: 28 days, gavage, M/F, Clinical Observation: Salivation Locomotor activity decrease, Bradypnea Ptosis Flushing of auricle Staggering gait + Body Weight Changes: …): 40 mg/kg-day

Cl.Cl.NCCNCCNCCN [Trientine hydrochloride]
NOAEL (chronic, duration: 92 days, drinking water, F, Fischer 344, Histopathology: Uterus: Increased prevalence of dilatation): 669 mg/kg-day

CCOP(OCC)OCC [Triethyl phosphite]
NOAEL (subchronic, duration: 32 days, gavage, M/F, Deaths + Clinical Observation: Impaired general condition Emaciation Unkempt fur + Body Weight Changes: Weight gain decrease + Food …): 150 mg/kg-day

CO[Si](OC)(OC)c1ccccc1 [Trimethoxyphenylsilane]
NOAEL (short-term, duration: 28 days, gavage, M, Han Wistar, Body Weight Changes: decrease + Food Consumption: decrease + Blood Chemistry: BUN increase, BA increase, T-Cho increase + Absolute Organ …): < 100 mg/kg-day

C[Si](C)(C)O [Trimethylsilanol]
NOAEL (short-term, duration: 28 days, gavage, M/F, Wistar, Clinical Observation: Staggering gait + Body Weight Changes: Body weight gain decrease + Relative Organ Weight: Liver increase + …): 250 mg/kg-day

C=C[Si](OCCOC)(OCCOC)OCCOC [Tris(2-methoxyethoxy)vinylsilane]
NOAEL (short-term, duration: 28 days, gavage, M/F, CD(SD), Body Weight Changes: decrease + Food Consumption: decrease + Hematology: RBC decrease, HGB decrease, HCT decrease, MCHC decrease, RET …): 25 mg/kg-day

CCCCCCCCCCC=O [Undecanal]
NOAEL (subchronic, duration: 42 days, gavage, M, CD(SD), Clinical Observation: Salivation (transient)): 1000 mg/kg-day
